Source: patent US20120129811A1, “TRICYCLIC INHIBITORS OF PRO-MATRIX METALLOPROTEINASE ACTIVATION” (priority 2010, published 2012)

How the values were obtained:
[1] = molecular target: T1, proMMP9 activation to active MMP9 in rat synoviocytes (Rattus norvegicus, UniProt P50282); assay: Activation of proMMP9 in rat synoviocyte cultures (Western blot); format: cell-based
T1 construct: endogenous in cells; host or cells: primary synoviocytes from SCW-arthritic female Lewis rats, TNFα-stimulated
From the text: Activation of proMMP9 in Rat Synoviocyte Cultures
A primary synoviocytes line was derived from the periarticular tissue of arthritic rats. Arthritis was induced in female Lewis rats following an i.p. administration of streptococcal cell wall peptidoglycan polysaccharides (J Exp Med 1977; 146:1585-1602). Rats with established arthritis were sacrificed, and hind-limbs were severed, immersed briefly in 70% ethanol, and placed in a sterile hood. The skin was removed and the inflamed tissue surrounding the tibia-tarsal joint was harvested using a scalpel. Tissue from six rats was pooled, minced to approximately 8 mm^3 pieces, and cultured in Dulbecco's Modified Eagle's Medium (DMEM) containing 15% fetal calf serum (FCS). In the following weeks, cells migrated out of the tissue piece, proliferated, and formed a monolayer of adherent cells. The synoviocytes were lifted from culture plates with 0.05% trypsin and passaged weekly at 1:4 ratios in DMEM containing 10% FCS. Synoviocytes were used at passage 9 to investigate the ability of Compound-α to inhibit the maturation of MMP9 to active form.
Rat synoviocytes spontaneously expressed and activated MMP9 when cultured in collagen gels and stimulated with tumor necrosis factor-alpha (TNFα) (FIG. 1 and Table 3). Eight volumes of an ice-cold solution of 3.8 mg/mL rat tail collagen (Sigma Cat #C3867-1VL) were mixed with 1 volume of 1 M sodium bicarbonate and 1 volume of 10× Roswell Park Memorial Institute medium. The pH of the mixture was adjusted to pH 7 with 1 N sodium hydroxide and equal volumes of the pH-adjusted collagen solution were mixed with DMEM containing 0.8 million synoviocytes per mL. One half mL volumes were dispensed into Costar 24-well culture dishes and placed for one hr at 37° C. and 5% CO2, during which time the collagen solution formed a gel. Individual gels were dislodged into wells of 12-well Costar plates containing 1 mL/well of DMEM adjusted to contain 0.05% BSA and 100 ng/mL mouse TNFα (R&D Systems Cat #410-MT-010). […] After overnight culture at 37° C. and 5% CO2, wells were adjusted to contain an additional 0.5 mL of DMEM containing 0.05% BSA and Compound-α at 4× the final desired concentration (final culture volumes were 2 mL). The plates were cultured an additional 48 hrs, at which time 1 mL of conditioned media were harvested into fresh eppendorf tubes containing 40 μL/mL of a 50% slurry of gelatin-conjugated sepharose (GE Healthcare Cat #17-0956-01). Samples were rotated for 2 hrs at 4° C. before centrifugation 1 min×200 g. Supernatants were discarded. The gelatin-sepharose pellets were washed once with 1 mL of ice cold DMEM, resuspended in 50 μL of 2× reducing Leamli buffer and heated 5 min at 95° C. Fifteen μL of eluted proteins were resolved on 4-12% NuPAGE gels and transferred to 0.45 μm pore-sized nitrocellose blots. Next, blots were incubated in blocking buffer (5% milk in Tris-buffered saline containing 0.1% Tween-20) for 1 hr at RT and probed overnight (4° C.) with blocking buffer containing 1 μg/mL primary antibodies. Blots were next probed 1 hr at RT with 1/10,000 dilutions of goat anti-mouse IgG-HRP or goat anti-rabbit IgG-HRP (Santa Cruz) in blocking buffer and developed using SuperSignal® West Fempto Maximum Sensitivity Substrate. Chemiluminesence signal was analyzed using a ChemiDoc imaging system (BioRad Laboratories) and Quantity One® image software. Electrophoretic mobility was estimated based on the mobility of standards (Novex Sharp Pre-Stained Protein Standards P/N 57318). […]

[2] = molecular target: T2, proMMP9 processing to active MMP9 in HFL-1 cells (Homo sapiens, UniProt P14780); assay: Activation of proMMP9 by human fetal lung fibroblast (HFL-1) cultures (Western blot); format: cell-based
T2 construct: host or cells: HFL-1 human fetal lung fibroblasts, TNFα plus neutrophil elastase
T2 sequence (P14780 20-707 limits assumed): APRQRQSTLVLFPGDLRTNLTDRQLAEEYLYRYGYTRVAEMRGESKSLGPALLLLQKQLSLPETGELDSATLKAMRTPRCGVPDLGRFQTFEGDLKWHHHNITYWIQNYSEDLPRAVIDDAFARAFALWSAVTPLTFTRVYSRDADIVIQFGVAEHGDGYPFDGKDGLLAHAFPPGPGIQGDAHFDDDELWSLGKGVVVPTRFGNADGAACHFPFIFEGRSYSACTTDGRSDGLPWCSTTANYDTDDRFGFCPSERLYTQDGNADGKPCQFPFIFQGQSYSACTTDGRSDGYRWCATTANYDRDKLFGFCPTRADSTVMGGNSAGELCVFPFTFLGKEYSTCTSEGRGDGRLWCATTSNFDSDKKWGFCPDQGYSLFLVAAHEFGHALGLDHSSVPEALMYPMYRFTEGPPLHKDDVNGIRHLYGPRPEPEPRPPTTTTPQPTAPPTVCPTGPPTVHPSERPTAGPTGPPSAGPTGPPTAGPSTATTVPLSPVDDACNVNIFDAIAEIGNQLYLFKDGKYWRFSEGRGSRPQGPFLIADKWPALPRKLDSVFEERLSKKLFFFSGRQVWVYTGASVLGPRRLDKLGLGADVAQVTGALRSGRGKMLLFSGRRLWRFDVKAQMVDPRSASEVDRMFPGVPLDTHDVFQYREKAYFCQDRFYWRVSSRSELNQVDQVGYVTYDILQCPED
Method: Activation of proMMP 9 by Human Fetal Lung Fibroblast Cultures
Compound-α was assessed additionally for ability to block the maturation of proMMP9 to active MMP9 in cultures of human fetal lung fibroblasts (HFL-1, American Type Culture Collection # CCL-153). Unlike rat synoviocytes, HFL-1 cells were unable to process proMMP9 to the active form without addition of neutrophil elastase. […] Rather, the function of elastase in this assay may be to inactivate tissue inhibitors of matrix metalloproteinases (TIMPs) that repress endogenous pathways of MMP9 activation (Am J Respir Crit. Care Med; 1999; 159:1138-46).
HLF-1 were maintained in monolayer culture in DMEM with 10% FCS and were used between passage numbers 5-15. HLF-1 were embedded in collagen gels as described for rat SCW synoviocytes (vida supra). Half mL gels containing 0.4 million cells were dislodged into wells of 12 well Costar plates containing 1 mL/well of DMEM adjusted to contain 0.05% BSA and 100 ng/mL human TNFα (R&D Systems Cat #210-TA/CF). After overnight culture (37° C. and 5% CO2) wells were adjusted to contain an additional 0.5 mL of DMEM containing 0.05% BSA and with or without 13.2 μM Compound-α (final concentration was 3.3 μM Compound-α). Next, cultures were adjusted to contain 30 nM human elastase (Innovative Research). The plates were cultured an additional 72 hrs, at which time MMP9 secreted into the conditioned media was bound to gelatin-sepharose and evaluated by Western blot analysis as described for the rat synoviocyte cultures (vida supra). mAb-51/82 detected three forms of MMP9 in HFL-1 cultures.
A second experiment was performed to determine if the 80 kD form was mature active MMP9 and to determine the potency of Compound-α as an inhibitor of MMP9 maturation in this assay. HFL-1 cells embedded in collagen gels were cultured as described above in the presence of TNFα overnight and the cultures were then adjusted to contain 30 nM elastase and graded concentrations of Compound-α for an additional 72 hrs at which time MMP9 secreted into the conditioned media was bound to gelatin-sepharose and evaluated by Western blot analysis for active MMP9 using pAb-1246 raised against the N-terminal neoepitope of active MMP9 (Table 5). In the absence of Compound-α, pAb-1246 readily detected MMP9 with an electrophoretic mobility of approximately 80 kD. […] Inhibition occurred over a dose range with an IC50 of approximately 0.3 μM Compound-α.

T1 sequence (P50282 20-708 limits assumed): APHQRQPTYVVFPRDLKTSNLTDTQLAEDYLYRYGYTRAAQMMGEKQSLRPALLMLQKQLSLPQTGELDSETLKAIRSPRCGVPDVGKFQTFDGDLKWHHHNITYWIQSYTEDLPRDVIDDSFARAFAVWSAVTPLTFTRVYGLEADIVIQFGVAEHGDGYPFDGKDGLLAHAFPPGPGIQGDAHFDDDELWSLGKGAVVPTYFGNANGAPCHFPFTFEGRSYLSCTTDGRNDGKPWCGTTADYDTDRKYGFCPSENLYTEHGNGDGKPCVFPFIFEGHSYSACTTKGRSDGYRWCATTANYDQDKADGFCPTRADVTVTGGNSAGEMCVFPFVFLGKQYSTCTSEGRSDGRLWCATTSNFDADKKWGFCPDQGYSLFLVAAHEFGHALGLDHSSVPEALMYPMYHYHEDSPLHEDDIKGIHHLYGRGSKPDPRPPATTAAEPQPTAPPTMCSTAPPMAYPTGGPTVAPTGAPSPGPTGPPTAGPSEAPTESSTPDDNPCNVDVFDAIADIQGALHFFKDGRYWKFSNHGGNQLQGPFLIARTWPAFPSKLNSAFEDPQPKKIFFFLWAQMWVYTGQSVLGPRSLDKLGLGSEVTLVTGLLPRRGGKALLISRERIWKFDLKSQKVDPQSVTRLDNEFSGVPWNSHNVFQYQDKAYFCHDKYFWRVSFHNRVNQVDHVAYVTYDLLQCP

Cc1nc(C)c(-c2csc(Nc3cc(S(N)(=O)=O)ccc3OC(C)C)n2)s1 [Compound α, 3-(2′,4′-Dimethyl-[4,5′]bithiazolyl-2-ylamino)-4-isopropoxy-benzenesulfonamide.HBr]
inhibition at 0.37 µM ([1]; 0.37 μM Compound-α, 80 kD active MMP9, pAb-1246): 12%
inhibition at 1.1 µM ([1]; 1.1 μM Compound-α, 80 kD active MMP9, pAb-1246): 46%
inhibition at 3.3 µM ([1]; 3.3 μM Compound-α, 80 kD active MMP9, pAb-1246): 86%
inhibition at 10 µM ([1]; 10 μM Compound-α, 80 kD active MMP9, pAb-1246): 97%
IC50 ([1]; rat synoviocytes, pAb-1246 band chemiluminescence, read-out: IC50 for inhibition of production of active MMP9): ~1100 nM
Signal, Total ([2]; 3.3 μM Compound-α, 30 nM elastase, final 72 hrs, mAb-L51/82): 91346 INT * mm^2
Percent of total signal, 80 kD ([2]; 3.3 μM Compound-α, mAb-L51/82): 7%
Percent of total signal, 86 kD ([2]; 3.3 μM Compound-α, mAb-L51/82): 47%
Percent of total signal, 100 kD ([2]; 3.3 μM Compound-α, mAb-L51/82): 46%
inhibition at 0.12 µM ([2]; HFL1, 0.12 μM Compound-α, active MMP9, pAb-1246): 0%
inhibition at 0.37 µM ([2]; HFL1, 0.37 μM Compound-α, active MMP9, pAb-1246): 73%
inhibition at 1.1 µM ([2]; HFL1, 1.1 μM Compound-α, active MMP9, pAb-1246): 99%
inhibition at 3.3 µM ([2]; HFL1, 3.3 μM Compound-α, active MMP9, pAb-1246): 100%
inhibition at 10 µM ([2]; HFL1, 10 μM Compound-α, active MMP9, pAb-1246): 100%
IC50 ([2]; HFL-1 cultures, pAb-1246, read-out: IC50 for inhibition of processing of proMMP9 to active MMP9): ~300 nM
